Laboratory results: publication PMC2376196, “Novel thalidomide analogues display anti-angiogenic activity independently of immunomodulatory effects” (British Journal of Cancer, 2002)
Values after ≈ are worked out from the molar mass of the structure shown. “Also recorded” adds a separate entry of the source. Read-outs that look alike come from different tables or passages of the source.

What was measured:
[1] = tested on: PDE type 4 purified from U937 cells; assay: Phosphodiesterase (PDE) type 4 assay; format: biochemical; conditions: PDE type 4 from U937 cells; three independent experiments; read-out: PDE4 activity IC50
Procedure: PDE type 4 purification from U937 cells was carried out using the method of [Hill and Mitchell (1994)]. PDE activity was assayed, using a method described by [di Santo and Heaslip (1993)], in the presence of varying concentrations of thalidomide analogues. Each data point was carried out in duplicate with activity expressed as percentage of control. IC50 was determined from dose response curves derived from three independent experiments.

HUVEC = HUVEC proliferation (bFGF- and VEGF-induced, 3H-thymidine); format: cell-based, human; conditions: for bFGF and VEGF-induced proliferation of HUVECs: 5-50 μg ml^-1, 96 h; for IC50: Homo sapiens, HUVEC; for IC50 / HUVEC inhibition ~IC50 VEGF / HUVEC inhibition ~IC50 bFGF: 96 h, approximate figures
Procedure: (§1) Human umbilical vein endothelial cells (HUVEC) were purchased from TCS Cellworks Ltd. (Park Leys, Botolph Claydon, Bucks, UK) and cultured in large vessel EC basal medium and cell growth supplement (TCS Cellworks Ltd.). The cells were passaged between 3–5 times prior to use. The human endothelial-like EA.hy926 cell line, derived from the fusion of HUVEC with the A549 carcinoma cell line ([Edgell et al, 1983]), was kindly provided by Cora-Jean Edgell (NC, USA). The cells were cultured in DMEM with high glucose, 10% FCS and HAT. Both cell lines were harvested from subconfluent cultures and diluted to 4×10^4 cells ml^−1. Cells were seeded in 60 wells of a 96-well plate in a volume of 100 μl^−1. One plate was used per test article. Plates were incubated for 1 h at 37°C and 5% CO2. Growth factors were added at a volume of 50 μl^−1 with final concentrations of 10 ng ml^−1. Thalidomide and its analogues were added at a volume of 50 μl^−1 in final concentrations of 5, 10, 25, 50 μg ml^−1. DMSO as used as a vehicle at a final concentration of 0.05%. Plates were incubated at 37°C with 5% CO2 for 96 h. During the last 18 h of culture 1 μCi^−1 of ^3H-thymidine was added per well. Plates were then stored at −20°C until analysis using a Microbeta counter (Wallac, UK).

rat aortic explants = assay: Rat aorta assay (microvessel outgrowths); format: cell-based; design: key to Anti-angiogenesis Rat aorta: 0=no effect; 1=non significant inhibition; 2=significant inhibition at 10 μg ml^-1; 3=significant inhibition at 1 μg ml^-1; conditions: for Anti-angiogenesis Rat aorta: ranked 0-3
Procedure: For the human angiogenesis assay thalidomide and various analogues were dissolved in DMSO (Sigma, Kent, UK) to obtain a stock solution of 1 mg ml^−1. Further dilutions were made in warm culture medium immediately before use and 1 and 10 μg ml^−1 of thalidomide or analogues were administered every 48 h. Final DMSO concentration was 0.05%. For the rat aorta assay, thalidomide analogues (Celgene, Warren, NJ, USA) were prepared in Tween 80 (Sigma, Kent, UK). […] The final Tween 80 concentration was 0.025%. For in vivo treatment experiments, mice were treated daily with 10 or 50 mg kg^−1 IMiD-1 with 0.5% DMSO as vehicle (see Tumour challenge model).
Preparation of agarose culture wells and aortic explants were prepared as described originally [Nicosia and Ottinetti, 1990], and subsequently modified by [Stevenson et al, 1998]. In brief, aortic explants were stored in DMEM/HAM F12. Agarose rings were obtained by punching two concentric circles in the sterile agarose gel (1.5%, w v^−1) with specifically designed aluminium punches. Collagen type I from rat tail (Sigma) was dissolved overnight in glacial acetic acid and diluted to 4.3 mg ml^−1 with 10% (v v^−1) DMEM/HAM F12. The final collagen solution was obtained by mixing seven volumes of 4.3 mg ml^−1 collagen with two volumes NaHCO3 (11.7 mg ml^−1 in DMEM/HAM F12) and one volume of 10×MEM. Finally, the pH was adjusted to 7.4 with 0.1 M NaOH using phenol red as a visual indicator. Prior to embedding of explants in collagen gel, the bottom of each agarose well was coated with 200 μl collagen solution and allowed to set at 37°C. The wells were then filled (further addition of 400 μl) and explants were promptly orientated into the centre of the collagen gel. The plates were incubated overnight with serum-free medium before group allocation and drug treatment commenced. Drugs were prepared as described and diluted in DMEM/HAM F12 medium to be administered at each media change (48 h). Microvessel outgrowths in all cultures were quantified at each media change.

TNF-α = TNF-α inhibitory activity; format: cell-based
[2] = tested on: HUVECs (tubule formation); assay: Human angiogenesis kit (tubule development); format: cell-based; design: key to Anti-angiogenesis Human model: 0=no effect; 1=non significant inhibition; 2=significant inhibition at 10 μg ml^-1; 3=significant inhibition at 1 μg ml^-1; conditions: for inhibition of tubule development: 11 days; for Anti-angiogenesis Human model: ranked 0-3
Procedure: (§2) For the human angiogenesis assay thalidomide and various analogues were dissolved in DMSO (Sigma, Kent, UK) to obtain a stock solution of 1 mg ml^−1. Further dilutions were made in warm culture medium immediately before use and 1 and 10 μg ml^−1 of thalidomide or analogues were administered every 48 h. Final DMSO concentration was 0.05%. For the rat aorta assay, thalidomide analogues (Celgene, Warren, NJ, USA) were prepared in Tween 80 (Sigma, Kent, UK). Dilutions were made in culture medium immediately before use and 1 or 10 μg ml^−1 of the analogues were administered every 48 h. The final Tween 80 concentration was 0.025%. For in vivo treatment experiments, mice were treated daily with 10 or 50 mg kg^−1 IMiD-1 with 0.5% DMSO as vehicle (see Tumour challenge model).
A commercially available human angiogenesis kit, used for the assessment of angiogenesis in vitro ([Bishop et al, 2000]; [Donovan et al, 2001]; [Terai et al, 2001]; [Drinkwater et al, 2002]; [Osugi et al, 2002]) was provided by TCS Cellworks. The assay is supplied as growing cultures of HUVECs at the earliest stages of tubule formation in a 24 well plate format. The assay was carried out according to manufactures instructions with minor modifications. In brief, 0.5 ml^−1 of fresh medium or medium plus drug preparations were added to the appropriate wells. A known angiogenic stimulator (VEGF at 5 ng ml^−1) and inhibitor (suramin at 10 μg ml^−1) were included as positive and negative controls respectively in addition to medium and DMSO controls and plates were incubated at 37°C. Drug administration was carried out every 48 h. On day 11, wells were fixed using ice cold 70% EtOH prior to incubation (RT) for 30 min. Blocking buffer was then added for 10 min. Endothelial cells were visualised by first staining with a primary sheep anti-human for von Willebrand factor antibody followed by a secondary donkey anti-sheep IgG horseradish peroxidase conjugate prior to colour development using a DAB metal substrate. The plate was washed with ddH2O (×3) and allowed to air dry overnight. Cultures were scored manually using a 25-point Chalkley eyepiece graticule (Graticules Ltd., Tonbridge, Kent, UK), previously described as a satisfactory method of assessing tumour vascularity ([Fox et al, 1995]). The extent of angiogenesis was assessed by counting the number of points on the chalkley graticule that landed on a tubule. The count was repeated 12 times for each well. The term ‘graticule unit’ was assigned to this measurement of tubule density.

EA.hy926 cell line = assay: EA.hy926 proliferation (bFGF- and VEGF-induced, 3H-thymidine); format: cell-based, human; conditions: 5-50 μg ml^-1, 96 h; data not shown
Procedure: as §1

EA.hy926 cells = assay: Wound assay for EA.hy926 cell migration; format: cell-based, human; conditions: 16 h
Procedure: We tested IMiD-1 in the wound healing assay as described by [Igura et al, 2001]. Briefly, confluent monolayers of EA.hy.926 cells in 35-mm dishes were wounded with a rubber policeman and washed with PBS. Then the dishes were incubated in complete DMEM containing IMiD-1 or suramin for 16 h at 37°C in a 5% CO2 incubator. DMSO (0.05%) was used as control. The cell monolayers were fixed with absolute methanol and stained with Giemsa. The number of cells that had migrated from the edge of the wound in each 125×500 μm area of eight randomly chosen fields was counted. The results are presented as the average number of cells per field.

CMT93 colorectal tumour = format: in vivo, MF1 nude mice
Procedure: as §2
MF1 nude mice (nu nu^−1) were purchased from Harlan UK. Mice were age and sex-matched for individual experiments. All animal experiments have been carried out with ethical committee approval. The ethical guidelines that were followed meet the standards set by the UKCCCR guidelines ([Workman et al, 1998]). CMT93 is an epithelial-like murine rectum polypoid carcinoma cell line with sarcomatous features derived from a C57/BL mouse ([Franks and Hemmings, 1978]). Mice were challenged subcutaneously with 200 μl of the murine colorectal cell line CMT93 (2×10^6 per mouse). Once the tumours reached a size of 20 mm^3, the potent anti-angiogenic analogue IMiD-1 was administered intraperitoneally daily at a concentration of 10 or 50 mg kg^−1. Tumours were measured every 3–4 days, and volumes (in mm^3) were calculated by the use of the formula (width [mm^2]×length [mm]×0.52). The animals were observed daily, and those bearing large tumours were monitored carefully for any signs of discomfort. […] Histological samples were obtained using formalin-fixed, paraffin-embedded sections stained for haematoxylin and eosin and viewed under a microscope at a magnification of ×400.

CMT93 cells = CMT93 cells in vitro (direct effect, VEGF secretion); format: cell-based, murine; conditions: data not shown
human EC = tested on: human EC; design: method as in Moreira et al, 1999; conditions: compared with thalidomide; ref Moreira et al, 1999; cited from earlier work
EC = tested on: EC; design: method as in Takano et al, 1994; conditions: ref Takano et al, 1994; cited from earlier work

Compound | IC50 [1] | bFGF and VEGF-induced proliferation of HUVECs (HUVEC) | Anti-angiogenesis Rat aorta (rat aortic explants) | IC50 (TNF-α) | inhibition of tubule development ([2]; 10 μg ml^-1 every 48 h) | Anti-angiogenesis Human model [2] | bFGF and VEGF-induced proliferation of EA.hy926 (EA.hy926 cell line) | HUVEC inhibition ~IC50 VEGF (HUVEC; VEGF-induced proliferation) | HUVEC inhibition ~IC50 bFGF (HUVEC; bFGF-induced proliferation) | inhibition of microvessel outgrowths (rat aortic explants; 1 μg ml^-1 every 48 h) | migration of EC in the wound healing assay (EA.hy926 cells) | inhibition of microvessel outgrowths (rat aortic explants; 10 μg ml^-1 every 48 h) | also measured
O=C1CCC(N2C(=O)c3ccccc3C2=O)C(=O)N1 (centres unmarked) [Thalidomide] | > 100 µM | did not significantly inhibit | 0 | 190 µM | non-significant inhibition | 1 |  |  |  |  |  |  | IC50 (HUVEC; VEGF-induced proliferation, read-out: HUVEC inhibition ~IC50 VEGF): > 50 µg/mL; IC50 (HUVEC; bFGF-induced proliferation, read-out: HUVEC inhibition ~IC50 bFGF): > 50 µg/mL; inhibition of microvessel development (rat aortic explants; at up to 50 μg ml^-1, data not shown): did not significantly inhibit
VEGF |  |  |  |  |  |  |  |  |  |  |  |  | effect on angiogenesis (tubule development) ([2]; VEGF at 5 ng ml^-1, positive control): significantly increased
Nc1cccc2c1CN(C1CCC(=O)NC1=O)C2=O (centres unmarked) [IMiD-1] | > 100 µM | did not significantly inhibit; also recorded: did not affect | 3 | 0.1 µM | more potent than suramin | 3 | did not affect | >50 µg/mL | >50 µg/mL | significantly inhibited | significantly inhibit |  | inhibition of microvessel outgrowths (rat aortic explants; 10 μg ml^-1 every 48 h, up to day 10): 100%; inhibition of tubule development ([2]; 1 μg ml^-1 every 48 h): significant reduction; also recorded: significantly inhibit; histological examination of tumours (CMT93 colorectal tumour; 10 or 50 mg kg^-1 i.p. daily): vast regions of necrotic tissue; tumour growth rates (CMT93 colorectal tumour; 10 or 50 mg kg^-1 i.p. daily, nude mice, CMT93): significantly reduce; health and weight of mice (CMT93 colorectal tumour; mouse, in vivo, ip): healthy and maintained weight as normal; direct drug effect on CMT93 cells in vitro (CMT93 cells): no direct drug effect; secretion of VEGF by CMT93 cells in vitro (CMT93 cells): inhibit
COc1ccc(C(CC(N)=O)N2C(=O)c3ccccc3C2=O)cc1OC (centres unmarked) [SelCID-3] | 9.42 µM | inhibited | 3 | 12.6 µM |  |  | inhibited | ~45 µg/mL | ~25 µg/mL | potent inhibition |  | potent inhibition | inhibition of human EC proliferation in vitro (human EC): greater extent than thalidomide
Cc1ccc(C(=O)Nc2ccc(S(=O)(=O)O)c3cc(S(=O)(=O)O)cc(S(=O)(=O)O)c23)cc1NC(=O)c1cccc(NC(=O)Nc2cccc(C(=O)Nc3cc(C(=O)Nc4ccc(S(=O)(=O)O)c5cc(S(=O)(=O)O)cc(S(=O)(=O)O)c45)ccc3C)c2)c1 [suramin, reference compound] |  | did not inhibit |  |  |  |  |  |  |  |  | significantly inhibit | significantly inhibit | IC50 (rat aortic explants; Rattus norvegicus, previously determined, data not shown): 10 µg/mL (≈ 7.71 µM); concentration required to inhibit EC proliferation (EC): 250 µg/mL; inhibition at 10 µg/mL ([2]; Homo sapiens, HUVEC, suramin at 10 μg ml^-1): ~50%
